Laboratory results reported in ChEMBL document CHEMBL1125575, “2-[(2-pyridylmethyl)sulfinyl]-1H-thieno[3,4-d]imidazoles. A novel class of gastric H+/K(+)-ATPase inhibitors” (J Med Chem, 1992).

Legend:
Oryctolagus cuniculus [1] = species: Oryctolagus cuniculus; test: cells; type: functional, organism-based, Stomach
Description: In vitro inhibition of 14C amino-pyrine uptake was determined in isolated rabbit gastric glands after dbcAMP stimulation

[2] = target: Potassium-transporting ATPase alpha chain 1 (Sus scrofa, UniProt P19156)
Description: In vitro inhibitory concentration against H+/K+ ATPase from pig stomach by probit analysis

Canis familiaris [3] = species: Canis familiaris; test: animal or person; settings: Canis lupus familiaris, Stomach, intraduodenal, read-out: Inhibition
animal or person = settings: Canis lupus familiaris, Stomach, iv, read-out: Inhibition
Rattus norvegicus [4] = species: Rattus norvegicus; test: animal or person; settings: Stomach, iv, read-out: Inhibition
[5] = target: Potassium-transporting ATPase alpha chain 1 (Sus scrofa) (UniProt P19156); test: Inhibition of H+/K+ ATPase from pig stomach; type: tissue-based; settings: concentration not given here
Canis familiaris [6] = species: Canis familiaris; test: animal or person; settings: Canis lupus familiaris, iv
[7] = Chemical stability at pH 2.0; type: physicochemical; settings: buffer
[8] = Chemical stability at pH 5.0; type: physicochemical; settings: buffer
[9] = Chemical stability at pH 7.0; type: physicochemical; settings: buffer
Canis familiaris [10] = test: Antisecretory activity calculated in heidenhain-pouch dog after id administration of the drug, value in parenthesis indicates 95% confidence limits; type: functional; settings: Canis lupus familiaris
Canis familiaris [11] = test: In vivo inhibition of gastric acid secretion was calculated in heidenhain-pouch dog after iv administration of the drug at a dose of 0.5 mg/kg; type: functional; settings: Canis lupus familiaris, Stomach
Rattus norvegicus [12] = test: In vivo inhibition of gastric acid secretion was calculated in stomach-lumen perfused rat after iv administration of drug at a dose of 5 mg/kg; type: functional
Canis familiaris [13] = test: In vivo inhibition of gastric acid secretion was calculated in heidenhain-pouch dog after iv administration of the drug at a dose of 0.3 mg/kg; type: functional; settings: Canis lupus familiaris, Stomach
Canis familiaris [14] = test: Antisecretory activity calculated in heidenhain-pouch dog after iv administration of the drug, values in parenthesis indicates 95% confidence limits; type: functional; settings: Canis lupus familiaris
Oryctolagus cuniculus [15] = species: Oryctolagus cuniculus; test: In vitro inhibition of 14C amino pyrine uptake was determined in isolated rabbit gastric glands after dbcAMP stimulation; type: functional; settings: Stomach
Canis familiaris [16] = test: Antisecretory activity calculated in heidenhain-pouch dog after id administration of the drug; type: functional; settings: Canis lupus familiaris

Sequence of Potassium-transporting ATPase alpha chain 1 (P19156 whole entry): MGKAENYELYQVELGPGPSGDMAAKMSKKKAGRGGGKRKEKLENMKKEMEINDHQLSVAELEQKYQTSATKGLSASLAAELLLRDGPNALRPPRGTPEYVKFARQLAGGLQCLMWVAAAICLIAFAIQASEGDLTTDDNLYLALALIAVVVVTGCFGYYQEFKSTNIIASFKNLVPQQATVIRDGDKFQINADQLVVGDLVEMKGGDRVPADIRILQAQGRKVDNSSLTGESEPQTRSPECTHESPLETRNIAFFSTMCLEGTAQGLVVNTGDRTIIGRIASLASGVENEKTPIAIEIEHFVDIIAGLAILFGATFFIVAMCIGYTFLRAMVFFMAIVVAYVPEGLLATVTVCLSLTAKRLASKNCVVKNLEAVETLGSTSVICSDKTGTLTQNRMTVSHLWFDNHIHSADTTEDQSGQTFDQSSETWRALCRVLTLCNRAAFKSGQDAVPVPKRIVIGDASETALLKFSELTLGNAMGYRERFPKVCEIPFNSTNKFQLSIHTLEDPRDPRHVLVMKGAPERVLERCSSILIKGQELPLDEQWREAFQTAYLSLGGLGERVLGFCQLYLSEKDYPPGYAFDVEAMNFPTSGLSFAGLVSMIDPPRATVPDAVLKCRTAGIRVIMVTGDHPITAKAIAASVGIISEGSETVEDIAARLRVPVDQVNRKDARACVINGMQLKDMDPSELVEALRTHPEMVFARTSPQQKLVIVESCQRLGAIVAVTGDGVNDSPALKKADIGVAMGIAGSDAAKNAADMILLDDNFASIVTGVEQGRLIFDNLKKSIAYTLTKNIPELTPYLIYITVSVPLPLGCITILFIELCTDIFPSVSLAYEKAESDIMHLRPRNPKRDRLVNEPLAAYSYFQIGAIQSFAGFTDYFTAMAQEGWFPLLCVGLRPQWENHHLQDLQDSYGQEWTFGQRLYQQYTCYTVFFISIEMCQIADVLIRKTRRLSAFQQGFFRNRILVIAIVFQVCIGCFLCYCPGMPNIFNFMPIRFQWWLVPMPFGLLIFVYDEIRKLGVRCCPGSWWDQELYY
Sequence of Potassium-transporting ATPase alpha chain 1 (Sus scrofa) (P19156 whole entry): as above
Description for physchem: pKa value of the compound

Row | Structure (SMILES) | inhibition in vivo at 1 mg/kg (Canis familiaris [3]) | inhibition in vivo at 0.3 mg/kg (animal or person) | inhibition in vivo at 0.5 mg/kg (Rattus norvegicus [4]) | IC50 (Oryctolagus cuniculus [1]; Stomach) | pKa (physchem) | ED50 (Canis familiaris [6]) | also measured
1 | COc1c(OCC(F)(F)C(F)F)ccnc1C[S+]([O-])c1nc2cscc2[nH]1 (stereo not drawn) | 47% | 58% | 79% |  |  |  | IC50 (Oryctolagus cuniculus [1]): 600 nM; IC50 [2]: 3000 nM
2 | COc1c(Cl)cnc(C[S+]([O-])c2nc3cscc3[nH]2)c1C (stereo not drawn) | 24% |  | 43% | 230000 nM |  |  | inhibition [5]: -5%
3 | Cc1ccc(C[S+]([O-])c2nc3cscc3[nH]2)nc1 (stereo not drawn) |  | 72% | 78% | 9000 nM | 3.26 | 0.11 mg/kg | 
4 | COc1c(OCC(F)(F)F)ccnc1C[S+]([O-])c1nc2cscc2[nH]1 (stereo not drawn) |  | 85% | 64% | 2500 nM | 3.52 | 0.08 mg/kg | IC50 [2]: 4000 nM
5 | COc1ccnc(C[S+]([O-])c2nc3cscc3[nH]2)c1Cl (stereo not drawn) | 36% | 82% | 71% | 1000 nM | 3.55 | 0.1 mg/kg | 
6 | COc1c(OCC(F)(F)C(F)(F)F)ccnc1C[S+]([O-])c1nc2cscc2[nH]1 (stereo not drawn) | 95% | 74% | 57% | 1000 nM |  | 0.13 mg/kg | half-life [7]: 0.183 h; half-life [8]: 7.8 h; half-life [9]: 23 h; ED50 (Canis familiaris [10]): 0.16 mg/kg
7 | Cc1ccnc(C[S+]([O-])c2nc3cscc3[nH]2)c1 (stereo not drawn) |  |  |  |  |  |  | inhibition in vivo at 0.5 mg/kg (Canis familiaris [11]): 72%; inhibition in vivo at 5 mg/kg (Rattus norvegicus [12]): -67%
8 | Cc1c(OCC(F)(F)F)ccnc1C[S+]([O-])c1nc2cscc2[nH]1 (stereo not drawn) |  |  | 56% | 21000 nM |  |  | inhibition in vivo at 0.3 mg/kg (Canis familiaris [13]): 57%
9 | [O-][S+](Cc1cc(OCC(F)(F)C(F)(F)C(F)(F)F)ccn1)c1nc2cscc2[nH]1 (stereo not drawn) [SAVIPRAZOLE] | 93% | 76% | 72% | 1300 nM | 3.73 |  | half-life [7]: 0.05 h; half-life [8]: 1.4 h; half-life [9]: 8 h; ED50 (Canis familiaris [14]): 0.22 mg/kg
10 | COc1c(Br)cnc(C[S+]([O-])c2nc3cscc3[nH]2)c1C (stereo not drawn) |  |  | 37% | 81000 nM |  |  | inhibition [5]: -5%
11 | COc1cccnc1C[S+]([O-])c1nc2cscc2[nH]1 (stereo not drawn) |  |  | 59% |  |  |  | IC50 (Oryctolagus cuniculus [15]): 290000 nM
12 | [O-][S+](Cc1cc(OCc2ccc(F)cc2)ccn1)c1nc2cscc2[nH]1 (stereo not drawn) |  |  | 85% |  |  |  | IC50 (Oryctolagus cuniculus [1]): 500 nM; inhibition in vivo at 0.3 mg/kg (Canis familiaris [13]): 80%; IC50 [2]: 500 nM
13 | COc1ccc2[nH]c([S+]([O-])Cc3ncc(C)c(OC)c3C)nc2c1 (stereo not drawn) [OMEPRAZOLE] |  |  |  |  |  | 0.1 mg/kg | half-life [7]: 12 h; half-life [8]: 2.26 h; half-life [9]: 17 h; ED50 (Canis familiaris [16]): 0.25 mg/kg
